Where “and” joins values, the source holds several entries; their conditions need not be identical. Identical values can stand only once.
Legend:
[1] = tested on: differentiated PC12 cells; assay: Neurite toxicity: percentage of differentiated PC12 cells with neurites after 24 h incubation; conditions: for reduction in the percentage of cells with neurites: strong dose; for inhibition of neurite outgrowth, dose responsiveness: increasing concentrations, 24 hrs, FIG. 1; for reduction in cells with neurites compared to no treatment control: Example 2, p<0.001
Description: PC-12 cells were maintained in Dulbecco's Modified Eagle Media (DMEM; Gibco) with 10% calf serum (Turbo calf serum, Invitrogen), 5% horse serum (JRH Biosciences, Victoria, Australia) and 1% penicillin/streptomycin (Invitrogen) at 37° C., in a 5% CO2 atmosphere. Differentiation into neurons was achieved by seeding cells at a density of 15,000 cells/well in 24-well plates (Falcon Becton Dickinson), on 13 mm glass cover slips (Menzel Glaser, Germany) coated with laminin (Invitrogen) and poly-DL-ornithine (Sigma) in DMEM plus 1% horse serum and 50 ng/mL of nerve growth factor (NGF) (Sigma). The cells were incubated for 72 hours under differentiation conditions, before use in the neurite outgrowth assays below.
Working concentrations were diluted in PC12 cell differentiation medium as above. Treatments consisted of a 24 hour incubation in differentiation media with various concentrations of either agent.
Outgrowing projections were considered neurites if they were greater than a cell body width (10 μm), essentially as previously described. Images of all neurons in thirty randomly selected fields were digitally captured using an Olympus BX60 fluorescence microscope with a UPIanFI 40×/0.75 objective lens and a Zeiss Axiocam HRc digital camera and Zeiss Axiovision 3.1 software. Neurons in all fields were counted per condition and the number of cells with neurites expressed as a percentage of total cells present and error expressed as the standard error of the mean (sem). Each experiment was conducted in triplicate and the results pooled. Statistical significance of data was analysed using ANOVA followed by the Bonferroni post-hoc test.
Neurite toxicity was determined as the percent of cells comprising neurite outgrowths as described in Example 1.

[2] = tested on: differentiated PC12 cells; assay: Neurite length (longest neurite per neuron) in differentiated PC12 cells; assay type: cell-based
Description: Further to the above described analysis of cells containing neurites, the longest neurite per neuron present in each frame was measured using Image J open source software (NIH, USA).

[3] = tested on: differentiated PC12 cells; assay: βIII-tubulin immunocytochemistry of treated differentiated PC12 cells; assay type: cell-based; conditions: 24 hrs
Source text: Further, immunocytochemistry was used to visualise the neurite toxicity effects described above. To do so, following the treatment period, cells were washed with PBS, fixed with 4% paraformaldehyde and permeabilised with ice-cold methanol. Neurons were immunostained for the neuronal marker βIII-tubulin (Promega; Madison, Wisconson, USA) and a Cy3-conjugated anti-mouse antibody (Invitrogen) was used to visualise the staining.

[4] = tested on: differentiated PC12 cells; assay: Recovery from cisplatin-induced neurite toxicity (24 h drug, 24 h wash-out, 24 h phenoxodiol); assay type: cell-based; conditions: after 48 hrs of recovery
Description: To determine whether phenoxodiol could have an effect on recovery from cisplatin- or paclitaxel-induced neurite toxicity by exacerbation, reversal, retardation or facilitation of repair, recovery experiments were performed. When conducting the recovery experiments, the concentrations of phenoxodiol tested were decreased by 1 log to 10 nM 100 nM and 1 μM.

[5] = patients receiving therapy; cited from earlier work
PC12 cells = tested on: PC12 cells
Description: A serial dilution was also conducted for phenoxodiol to determine the concentration which would not affect normal growth of the differentiated cells. […] Working concentrations were diluted in PC12 cell differentiation medium as above.

For `N.N.[Cl][Pt][Cl]` [cisplatin, Cis-diamine-dichloro-platinum], the “reduction in percentage of cells with neurites” value ([1]; cisplatin 1 μg/mL (3.33 μM), moderate dose, 24 h, Example 1) was 31.9%, the “reduction in the percentage of cells with neurites” value ([1]; cisplatin 20 μg/mL (66.65 μM), 24 h, Example 1) was 65.8% and the “neurite toxicity (percent neurites)” value ([1]; cisplatin alone 1 μg/ml, Example 2, ANOVA, t-test P<0.02) was “non-significant (n.s.) trend for moderate toxicity”. The “decrease in percent neurites compared to control” value ([1]; cisplatin alone 20 μg/ml, Example 2, P<0.001) was 42%, the “inhibition of neurite outgrowth, dose responsiveness” value [1] was “dose response in inhibition of neurite outgrowth” and the “average neurite length of the remaining neurites” value ([2]; cisplatin alone) was “no significant effect on the average neurite length”. For the same compound, the “percentage of cells bearing neurites compared to control (βIII-tubulin staining)” value ([3]; cisplatin 20 μg/ml) was “decreased the percentage of cells bearing neurites”, the “neurite toxicity compared to the no treatment control” value ([4]; cisplatin 1 μg/ml) was “no neurite toxicity” and the “neurite toxicity compared to the no treatment control” value ([4]; cisplatin 20 μg/ml, p<0.001) was “greater than 50%”. For the same compound, the “patients experiencing mild neuropathy” value [5] was “around 40%” and the “patients experiencing severe neuropathy” value [5] was “approximately 4%”.
In the case of `Oc1ccc(C2=Cc3ccc(O)cc3OC2)cc1` [phenoxodiol, 2H-1-benzopyran-7-0,1,3-[4-hydroxyphenyl]], the “sensitivity of neurite toxicity to the protective effect relative to cytotoxic and anti-proliferative effects in cancer cell lines” value ([1]; PC12 neuronal cell model vs a variety of cancer cell lines) was “approximately 10 fold”, the “neurite toxicity in combination, compared to phenoxodiol 10 μM alone” value ([1]; phenoxodiol 10 μM + cisplatin 1 μg/ml (P<0.01) or 20 μg/ml (P<0.001)) was “increased toxicity” and the “neurite toxicity in combination, compared to phenoxodiol 10 μM alone” value ([1]; phenoxodiol 10 μM + paclitaxel, both concentrations (P<0.001)) was “increased toxicity”. For the same compound, the “effect on percent neurites” value ([1]; phenoxodiol alone 10 μM, 24 h, P<0.001 vs no treatment control) was “significant neurite toxicity”, the “average neurite length compared to no treatment control” value ([2]; phenoxodiol 10 μM alone, p<0.001) was “significant reductions in average neurite length” and the “average neurite length compared to no treatment control” value ([2]; phenoxodiol 10 μM in combination with Cisplatin and Paclitaxel, p<0.001) was “significant reductions in average neurite length”. For the same compound, the “cell and neurite toxicity in βIII-tubulin stained cells” value ([3]; phenoxodiol 10 μm) was “Significant cell and neurite toxicity”, the cytotoxicity (PC12 cells; 10 μM, data not shown) was “considerable cytotoxicity” and the “effect on cell death or neurite outgrowth” value (PC12 cells; doses up to 1 μM, data not shown) was “no effect on cell death or neurite outgrowth”. For the same compound, the “maximal concentration tested that did not affect survival of PC12 cells” value (PC12 cells; serial dilution) was 1 μM and 3.2 μg/ml.
With `CC(=O)O[C@H]1C(=O)[C@@]2(C)[C@H]([C@H](OC(=O)c3ccccc3)[C@]3(O)C[C@H](OC(=O)[C@H](O)[C@@H](NC(=O)c4ccccc4)c4ccccc4)C(C)=C1C3(C)C)[C@]1(OC(C)=O)CO[C@@H]1C[C@@H]2O` [paclitaxel] the “inhibition of neurite outgrowth, dose responsiveness” value [1] was “dose response in inhibition of neurite outgrowth”, the “decrease in the percentage of cells possessing neurites” value ([1]; paclitaxel 0.156 μg/mL (0.18 μM), moderate dose, 24 h, Example 1) was 33% and the “reduction in the percentage of cells with neurites” value ([1]; paclitaxel 2.5 μg/mL (2.93 μM), 24 h, Example 1) was 73.6%. For the same compound, the “reduction in cells with neurites compared to no treatment control” value ([1]; paclitaxel moderate dose (0.156 μg/ml)) was 58%, the “reduction in cells with neurites compared to no treatment control” value ([1]; paclitaxel strong dose (2.4 μg/ml/2.93 μM)) was 72% and the “neurite length compared to the no treatment control” value ([2]; paclitaxel alone, both concentrations used, p<0.001) was “reduced neurite length”. For the same compound, the “cytotoxicity at the chosen concentrations” value (PC12 cells) was “did not produce cytotoxicity”.
